From PubChem BioAssay AID1204 (EPA DSSTox, 2008) come the findings set out here.

Inconclusive results are not listed. Calls of active or inactive are those of the source.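 How the source made its calls: active means relative estrogen receptor binding affinity above 1E-5, where estradiol scores 100; inconclusive means weak binder, under half inhibition at top dose, or affinity below 1E-5; inactive means no binding seen, affinity zero.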

The test system of the data set is estrogen receptor (rat uterine cytosol). Put plainly: DSSTox (NCTRER) National Center for Toxicological Research Estrogen Receptor Binding Database.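 On relative binding affinity: ratio of estradiol IC50 over compound IC50 times 100 so estradiol equals 100.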 The conditions noted are these: rat uterine cytosol ER competitive binding, RBA; for relative binding affinity: active compounds read high. The text has this: Researchers within FDA's National Center for Toxicological Research (NCTR) generated a database of experimental estrogen receptor binding results for the express purpose of developing improved QSAR models to predict ER binding affinities.The NCTR ER database is a structurally diverse set of natural, synthetic, and environmental estrogens covering most known estrogenic classes and spanning a wide range of biological activity. It represents the largest published ER binding database of same-assay results generated in a single laboratory. […] Information on the percent purity and purchasing source for all chemicals are not included in the DSSTox SDF, but can be obtained from the original NCTR ER Source database and Main Citations listed below. The main citation (Fang et al., 2001) surveys the NCTR ER database from a chemical class based, structure-activity relationship (SAR) perspective. Qualitative SAR characteristics of the NCTR ER database are discussed and a set of general hierarchical rules for identifying potential estrogens are presented. The DSSTox NCTRER SDF augments the original NCTR ER database with chemical class and SAR information abstracted from Fang et al. (2001). The DSSTox SDF file supplements the measured ER relative binding affinity for each chemical (ER_RBA) with chemical class assignment to one of 6 major estrogenic classes further divided into 20 subclasses (ChemClass_ERB), along with a qualitative activity measure, ActivityCategory_ER_RBA. A brief narrative SAR rationale pertaining to ER RBA patterns observed by Fang et al. (2001) for each of the 20 subclasses within the database are provided in the field, ActivityCategory_Rationale_ChemClass_ERB. The original NCTR ER database, from which the expanded DSSTox NCTRER was formed, is contained within a larger Endocrine Disruptor Knowledge Base (EDKB) accessible from the FDA Source Website. That website provides online access to a relational database comprised of in vitro and in vivo experimental data for about 2000 natural and synthetic compounds, much of this extracted from the literature and representing testing in many laboratories. Data are included for biological assays that measure estrogenic and androgenic activity. Estrogenic endpoints include in vitro assays for estrogen receptor competitive binding affinity, cell proliferation, and reporter-gene assays, and in vivo assays for uterotrophic activity (i.e., uterine weight gain and vaginal cornification). The database also contains a bibliography of over 1200 citations, many of which include abstracts.
Estrogen receptor relative binding affinity is determined using a competitive receptor binding assay as described in NCTRER Ref (Blair et al., 2000). Briefly, a chemical competes with radiolabeled E2 (i.e., estradiol) for binding to the ER in rat uterine cytosol and the concentration of chemical that causes 50% inhibition of E2 binding (i.e., IC50) is measured. The ER_RBA is calculated by dividing the IC50 of E2 (9X10-10M) by the IC50 of the competitor and multiplying by 100 (E2 RBA = 100). The validated assay tested 1nM E2 with concentrations of competitor ranging from 1nM to 1mM. The larger the ER_RBA values, the greater the binding affinity; ER_RBA > 100 means compound has greater binding affinity than natural ER ligand, E2. […] Activity Score is mapping of LOG_ER_RBA values (ER-RBA>1E-5), spanning activity range [MIN, MAX] onto Integer 20-100 Activity range, where 100 is highest potency and 20 is lowest active potency. If Activity Outcome is "active": Activity Score = 80 * INTEGER[(LOG_ER_RBA - MIN)/(MAX […] MIN)]. If Activity Outcome is "inconclusive" (i.e., slight binder): Activity Score = 5.

Where [1] appears, read: ChemClass_ERB: Phytoestrogens Chalconoids.
The mark [2] stands for this setting: ChemClass_ERB: Diphenylmethanes DDTs.
The mark [3] stands for this setting: ChemClass_ERB: Phenols Alkyloxy.
Setting [4] is: ChemClass_ERB: Phytoestrogens Flavones.
Setting [5] is: ChemClass_ERB: Steroids With aromatic A ring.
The mark [6] stands for this setting: ChemClass_ERB: Diphenylmethanes Diphenolalkanes.
[7] abbreviates: ChemClass_ERB: DES Hexestrol derivatives.
The mark [8] stands for this setting: ChemClass_ERB: Phytoestrogens Mycoestrogens.
Setting [9] is: ChemClass_ERB: Phytoestrogens Flavanones.
The mark [10] stands for this setting: ChemClass_ERB: Phytoestrogens Isoflavones.
Where [11] appears, read: ChemClass_ERB: Steroids Without aromatic A ring.

On to `O=C(/C=C/c1ccc(O)cc1)c1ccccc1`, for which, under setting [1], the relative binding affinity was 0.00281%. On to `ClC1=C(Cl)[C@]2(Cl)[C@@H]3[C@@H]4C[C@@H]([C@H]5O[C@@H]45)[C@@H]3[C@@]1(Cl)C2(Cl)Cl`, for which the outcome (ChemClass_ERB: Misc) was inactive. Regarding `Clc1ccc(C(c2ccc(Cl)cc2)C(Cl)(Cl)Cl)cc1`, under setting [2], the outcome was inactive. Consider `CCC(C)(C)c1ccc(O)cc1`, for which the relative binding affinity (ChemClass_ERB: Phenols Alkyl) is 0.00054%. As for `CCNc1nc(Cl)nc(NC(C)C)n1`, under “ChemClass_ERB: Misc”, the result was inactive.

Regarding `CCCCCCCOc1ccc(O)cc1`, the relative binding affinity under setting [3] is 0.00131%. On to `O=c1cc(-c2ccccc2)oc2ccccc12`, for which the result under setting [4] was inactive. For `Oc1ccc(-c2ccccc2)c(Cl)c1`, where the note is “ChemClass_ERB: Biphenyls PCBs”, the relative binding affinity is 0.00169%. Regarding `C[C@]12CC[C@@H]3c4ccc(O)cc4C[C@@H](CCCCCCCCCS(=O)CCCC(F)(F)C(F)(F)F)[C@H]3[C@@H]1CC[C@@H]2O` (some centres undefined), the relative binding affinity under setting [5] was 37.1%. Take `C[Si](C)(Cc1ccccc1)O[Si](C)(C)Cc1ccccc1`: the result (ChemClass_ERB: Misc) was inactive. On to `O=P(Oc1ccccc1)(Oc1ccccc1)Oc1ccccc1`, for which the outcome (ChemClass_ERB: Misc) was inactive. On the same count and under the same terms, next, `CCCCOC(=O)c1ccc(N)cc1`: “inactive”. In the case of `Clc1ccc(-c2ccccc2Cl)cc1`, where the note is “ChemClass_ERB: Biphenyls PCBs”, the relative binding affinity is 0.00024%. In the case of `Oc1ccccc1Cc1ccccc1O`, the result under setting [6] was inactive. On to `Oc1ccc(-c2ccc(Cl)cc2)cc1`, for which, under “ChemClass_ERB: Biphenyls PCBs”, the relative binding affinity was 0.0066%.

Turning to `O=C(/C=C/c1ccccc1)c1ccccc1`, the relative binding affinity under setting [1] was 0.00151%. Take `CCC(c1ccc(O)cc1)C(CC)c1ccc(OC)cc1` (centres undefined): the relative binding affinity under setting [7] was 9.33%. Regarding `C[C@H]1CCC[C@@H](O)CCCCCc2cc(O)cc(O)c2C(=O)O1`, under setting [8], the relative binding affinity is 0.646%. For `Oc1cc(O)c2c(c1)O[C@H](c1ccc(O)c(O)c1)[C@@H](O)C2`, the result under setting [9] was inactive. With `C[C@@H]1CCC[C@H](O)CCC/C=C/c2cc(O)cc(O)c2C(=O)O1`, the relative binding affinity under setting [8] was 0.204%.

Take `O=C1c2c(O)cc(O)cc2O[C@H](c2ccc(O)c(O)c2)[C@H]1O`: under setting [9], the outcome was inactive. As for `O=C1C[C@@H](c2ccc(O)cc2)Oc2cc(O)cc(O)c21`, the relative binding affinity under setting [9] was 0.0074%. On to `CNC(=O)Oc1cccc2c1OC(C)(C)C2`, for which the result (ChemClass_ERB: Misc) was inactive. With `COc1ccc(-c2coc3cc(O)cc(O)c3c2=O)cc1`, the relative binding affinity under setting [10] was 0.0043%. Consider `Oc1ccc([C@H]2COc3cc(O)ccc3C2)cc1`, for which, under setting [10], the relative binding affinity was 0.151%. As to `CCc1cccc(O)c1`, the relative binding affinity (ChemClass_ERB: Phenols Alkyl) was 0.00013%.

For the compound `O=C(O)COc1cc(Cl)c(Cl)cc1Cl`, the outcome (ChemClass_ERB: Misc) was inactive. For the compound `C[C@]12CC[C@@H]3c4cc(O)c(O)cc4CC[C@H]3[C@@H]1CC[C@@H]2O`, the relative binding affinity under setting [5] is 29.5%. On to `C/C=C/c1ccc(O)c(OC)c1`, for which the result under setting [3] was inactive. `ClC(Cl)=C(c1ccc(Cl)cc1)c1ccc(Cl)cc1`: under setting [2], the outcome was inactive. As for `CCCCOC(=O)c1ccccc1C(=O)OCCCC`, the result (ChemClass_ERB: Misc) was inactive. `O=Cc1ccco1`: the outcome (ChemClass_ERB: Misc) was inactive. For the compound `O=c1c(O)c(-c2ccc(O)cc2O)oc2cc(O)cc(O)c12`, the relative binding affinity under setting [4] was 0.00081%. For `CCOC(=O)c1ccccc1C(=O)OCC`, where the note is “ChemClass_ERB: Misc”, the result was inactive. `Oc1ccc(C(=C(Cl)Cl)c2ccc(O)cc2)cc1`: the relative binding affinity under setting [2] is 2.63%. In the case of `CC/C(=C(/CC)c1ccc(O)cc1)c1ccc(O)cc1`, the relative binding affinity (ChemClass_ERB: DES Derivatives) was 398%. As for `C[C@]12CC[C@@H](O)C[C@@H]1CC[C@@H]1[C@@H]2CC[C@]2(C)[C@@H](O)CC[C@@H]12`, the relative binding affinity under setting [11] is 0.0021%. Regarding `O=C(O)/C=C/c1ccccc1`, the outcome (ChemClass_ERB: Misc) was inactive. `Cn1c(=O)c2c(ncn2C)n(C)c1=O`: under “ChemClass_ERB: Misc”, the outcome was inactive. On to `C(/C=C/c1ccccc1)=C\c1ccccc1`, for which the outcome (ChemClass_ERB: Misc) was inactive.

`C#C[C@]1(O)CC[C@H]2[C@@H]3CCc4cc(O)ccc4[C@H]3[C@@H](OC)C[C@@]21C`: the relative binding affinity under setting [5] was 13.8%. In the case of `CC/C(=C(/CC)c1ccc(OC)cc1)c1ccc(O)cc1`, the relative binding affinity (ChemClass_ERB: DES Derivatives) is 20.4%.

Turning to `O=c1c(-c2ccc(O)c(O)c2)coc2cc(O)ccc12`, under setting [10], the relative binding affinity was 0.00446%. As for `C[C@]12CC[C@@H]3c4ccc(O)cc4[C@@H](O)C[C@H]3[C@@H]1CC[C@@H]2O`, the relative binding affinity under setting [5] was 0.708%.

As for `C[C@]12CC[C@H]3[C@@H](CCC4=CC(=O)CC[C@@]43C)[C@@H]1CC[C@H]2O`, the result under setting [11] was inactive. On to `CCC(c1ccc(O)cc1)C(CC)c1cc(C)c(O)c(C)c1` (centres undefined), for which the relative binding affinity under setting [7] is 8.91%. As to `O=c1c(-c2ccc(O)cc2)coc2cc(O)c(O)cc12`, the outcome under setting [10] was inactive. Turning to `Oc1ccc(CCc2ccc(O)cc2)cc1`, the relative binding affinity under setting [7] was 0.0363%.

Turning to `C[C@H]1CCCC(=O)CCCCCc2cc(O)cc(O)c2C(=O)O1`, the relative binding affinity under setting [8] was 2.09%. For the compound `CC(=O)[C@H]1CC[C@H]2[C@@H]3CCC4=CC(=O)CC[C@]4(C)[C@H]3CC[C@]12C`, the outcome under setting [11] was inactive. For the compound `O=C(O)CCCCCCC(=O)O`, for the setting “ChemClass_ERB: Misc”, the result was inactive. Regarding `O=S(=O)(O)c1ccc2c(N=Nc3ccc(S(=O)(=O)O)c4ccccc34)c(O)c(S(=O)(=O)O)cc2c1`, the result (ChemClass_ERB: Misc) was inactive. `COc1cc(C=O)ccc1O`: the outcome under setting [3] was inactive. As to `CCCCN(C)C(=O)CCCCCCCCCC[C@@H]1Cc2cc(O)ccc2[C@H]2CC[C@]3(C)[C@@H](O)CC[C@H]3[C@H]12`, the relative binding affinity under setting [5] is 14.4%.

Consider `Cc1ccc2c(C)cccc2c1`, for which the outcome (ChemClass_ERB: Misc) was inactive.

Take `CC(C)(c1ccc(O)cc1)c1ccc(O)cc1`: under setting [6], the relative binding affinity is 0.0078%. As to `C[C@@H]1O[C@@H](O[C@H]2[C@H](Oc3cc(O)c4c(c3)O[C@H](c3ccc(O)cc3)CC4=O)O[C@H](CO)[C@@H](O)[C@@H]2O)[C@H](O)[C@H](O)[C@H]1O`, under setting [9], the outcome was inactive. Regarding `Clc1ccc(C(c2ccc(Cl)cc2)C(Cl)Cl)cc1`, the result under setting [2] was inactive.

Take `O=c1c(O)c(-c2ccc(O)c(O)c2)oc2cc(O)cc(O)c12`: under setting [4], the outcome was inactive. As for `C/C=C(/C(=C/C)c1ccc(O)cc1)c1ccc(O)cc1`, the relative binding affinity under setting [7] is 37.1%. For `CCC(c1ccc(O)c(O)c1)C(CC)c1ccc(O)c(O)c1` (centres undefined), the relative binding affinity under setting [7] is 15.5%. In the case of `O=c1c(O)c(-c2cc(O)c(O)c(O)c2)oc2cc(O)cc(O)c12`, under setting [4], the relative binding affinity was 0.00177%. On to `Oc1ccccc1-c1ccccc1`, for which, where the note is “ChemClass_ERB: Biphenyls nonchlorinated”, the outcome was inactive.

On to `CCCCCCCCCCCCc1ccc(O)cc1`, for which the relative binding affinity (ChemClass_ERB: Phenols Alkyl) was 0.0186%.
